# Tested on: A/Udorn/72 (H3N2) virus
# Test: Plaque assay in MDCK cells: EC50 by reduction of plaque number
# Type: cell-based, influenza virus
# Details: not given
row,SMILES,EC50
1,COc1cccc(-c2cc(CCCO)c(/C=C3\SC(=S)N(C4C5CC6CC(C5)CC4C6)C3=O)[nH]2)c1 (stereo not drawn) [Compound 233],< 100 nM
2,COc1cccc(-c2cc(CCCO)c(/C=C3\SC(=S)N(C4C5CC6CC(C5)CC4C6)C3=O)[nH]2)c1 (stereo not drawn) [Compound 238],250 to 1000 nM

# Same assay, conditions: MDCK
row,SMILES,EC50
1,COc1cc(OC)cc(-c2cc(CCCNC(=O)[C@H](Cc3ccc(OC(C)(C)C)cc3)NC(=O)OC(C)(C)C)c(/C=C3\SC(=S)N(C4CC5CCC4C5)C3=O)o2)c1 (stereo partly drawn) [Compound 160],< 100 nM
2,COc1cc(OC)cc(-c2cc(CCCNC(=O)[C@H](Cc3cn(C(c4ccccc4)(c4ccccc4)c4ccccc4)cn3)NC(=O)OCC3c4ccccc4-c4ccccc43)c(/C=C3\SC(=S)N(C4CC5CCC4C5)C3=O)o2)c1 (stereo partly drawn) [Compound 161],< 100 nM
3,COc1cc(OC)cc(-c2cc(CCCNC(=O)[C@@H](NC(=O)OC(C)(C)C)c3ccccc3)c(/C=C3\SC(=S)N(C4CC5CCC4C5)C3=O)o2)c1 (stereo partly drawn) [Compound 162],< 100 nM
4,COc1cc(OC)cc(-c2cc(CCCNC(=O)[C@@H](N)CC(=O)O)c(/C=C3\SC(=S)N(C4CC5CCC4C5)C3=O)o2)c1 (stereo partly drawn) [Compound 169],< 100 nM
5,COc1cc(OC)cc(-c2cc(CCCNC(=O)[C@@H]3CCCN3)c(/C=C3\SC(=S)N(C4CC5CCC4C5)C3=O)o2)c1 (stereo partly drawn) [Compound 172],< 100 nM
6,COc1cc(O)cc(-c2cc(CCCNC(=O)[C@@H](N)CCCN=C(N)N)c(/C=C3\SC(=S)N(C4CC5CCC4C5)C3=O)o2)c1 (stereo partly drawn) [Compound 175],< 100 nM
7,COC(=O)[C@@H](O)[C@H](O)C(=O)OCCCc1cc(-c2ccc(F)cc2)oc1/C=C1\SC(=S)N(C2CC3CCC2C3)C1=O (stereo partly drawn) [Compound 177],< 100 nM
8,O=C1/C(=C/c2oc(-c3ccc(Cl)cc3)cc2CCCN2CCOCC2)SC(=S)N1C1CC2CCC1C2 (stereo not drawn) [Compound 179],< 100 nM
9,O=C1/C(=C/c2oc(-c3ccc(F)cc3)cc2CCCN2CCOCC2)SC(=S)N1C1CC2CCC1C2 (stereo not drawn) [Compound 180],< 100 nM
10,COc1cc(OC)cc(-c2cc(CCCN3CCOCC3)c(/C=C3\SC(=S)N(C4CC5CCC4C5)C3=O)o2)c1 (stereo not drawn) [Compound 181],< 100 nM
11,COc1cc(OC)cc(-c2cc(CCCN3CCOCC3)c(/C=C3\SC(=S)N(C4C5CC6CC(C5)CC4C6)C3=O)o2)c1 (stereo not drawn) [Compound 182],< 100 nM
12,O=C1/C(=C/c2oc(-c3ccc(F)cc3)cc2CCCN2CCOCC2)SC(=S)N1C1C2CC3CC(C2)CC1C3 (stereo not drawn) [Compound 183],< 100 nM
13,O=C1/C(=C/c2oc(-c3ccc(Cl)cc3)cc2CCCN2CCOCC2)SC(=S)N1C1C2CC3CC(C2)CC1C3 (stereo not drawn) [Compound 184],< 100 nM
14,O=C1/C(=C/c2oc(-c3ccc(F)cc3)cc2CCCN2CCNCC2)SC(=S)N1C1CC2CCC1C2 (stereo not drawn) [Compound 187],< 100 nM
15,COc1cc(OC)cc(-c2cc(CCCN3CCNCC3)c(/C=C3\SC(=S)N(C4CC5CCC4C5)C3=O)o2)c1 (stereo not drawn) [Compound 188],< 100 nM
16,O=C1/C(=C/c2oc(-c3ccc(F)cc3)cc2CCCN2CCNCC2)SC(=S)N1C1C2CC3CC(C2)CC1C3 (stereo not drawn) [Compound 189],< 100 nM
17,COc1cc(OC)cc(-c2cc(CCCN3CCNCC3)c(/C=C3\SC(=S)N(C4C5CC6CC(C5)CC4C6)C3=O)o2)c1 (stereo not drawn) [Compound 190],< 100 nM
18,O=C1/C(=C/c2oc(-c3ccc(Cl)cc3)cc2CCCN2CCNCC2)SC(=S)N1C1C2CC3CC(C2)CC1C3 (stereo not drawn) [Compound 191],< 100 nM
19,O=C1/C(=C/c2oc(-c3ccc(Cl)cc3)cc2CCCCCN2CCNCC2)SC(=S)N1C1CC2CCC1C2 (stereo not drawn) [Compound 192],< 100 nM
20,N=C(N)NCCCc1cc(-c2ccc(Cl)cc2)oc1/C=C1\SC(=S)N(C2CC3CCC2C3)C1=O (stereo not drawn) [Compound 197],< 100 nM
21,"COc1cc(OC)cc(-c2cc(CCCn3cc(CO)nn3)c(/C=C3\SC(=S)N(C4C5CC6CC(C5)CC4C6)C3=O)o2)c1 (stereo not drawn) [Compound 199, (Z)-3-(adamantan-2-yl)-5-((5-(3′,5′-dimethoxyphenyl)-3-(3-(4′-(hydroxymethyl)-1H-1′,2′,3′-triazol-1-yl)-propyl)furan-2-yl)methylene)-2-thioxothiazolidin-4-one]",< 100 nM
22,"COc1cc(OC)cc(-c2cc(CCCOC[C@@H](O)CO)c(/C=C3\SC(=S)N(C4CC5CCC4C5)C3=O)o2)c1 (stereo partly drawn) [Compound 202, (Z)-3-(bicyclo[2.2.1]heptan-2-yl)-5-((3-(3-((S)-2,3-dihydroxypropoxy)propyl)-5-(3′,5′-dimethoxy-phenyl)-furan-2-yl)methylene)-2-thioxothiazolidin-4-one]",< 100 nM
23,"O=C1/C(=C/c2oc(-c3ccc(Cl)cc3)cc2CCCOC[C@@H](O)CO)SC(=S)N1C1CC2CCC1C2 (stereo partly drawn) [Compound 203, (Z)-3-(bicyclo[2.2.1]heptan-2-yl)-5-((3-(3-((S)-2,3-dihydroxypropoxy)propyl)-5-(4′-chlorophenyl)-furan-2-yl)methylene)-2-thioxothiazolidin-4-one]",< 100 nM
24,"O=C1/C(=C/c2oc(-c3ccc(F)cc3)cc2CCCOC[C@@H](O)CO)SC(=S)N1C1CC2CCC1C2 (stereo partly drawn) [Compound 204, (Z)-3-(bicyclo[2.2.1]heptan-2-yl)-5-((3-(3-((S)-2,3-dihydroxypropoxy)propyl)-5-(4′-fluorophenyl)-furan-2-yl)methylene)-2-thioxothiazolidin-4-one]",< 100 nM
25,O=C1/C(=C/c2coc3ccc(Br)cc3c2=O)SC(=S)N1C1CCC2CCCCC2C1 (stereo not drawn) [Compound 206],< 100 nM
26,O=C1/C(=C/c2ccccc2)SC(=S)N1C1CC2CCC1C2 (stereo not drawn) [Compound 207],250 to 1000 nM

row,SMILES,EC50
1,"O=C1/C(=C/c2ccco2)SC(=S)N1C1C2CC3CC(C2)CC1C3 (stereo not drawn) [Compound 209, (Z)-3-(adamantan-2-yl)-5-(furan-2-ylmethylene)-2-thioxothiazolidin-4-one]",250 to 1000 nM
2,"O=C1/C(=C/c2coc3ccc(Br)cc3c2=O)SC(=S)N1C1C2CC3CC(C2)CC1C3 (stereo not drawn) [Compound 210, 3-adamantan-2-yl-5-(6-bromo-4-oxo-4H-chromen-3-ylmethylene)-2-thioxo-thiazolidin-4-one]",< 100 nM
3,"O=C1/C(=C/c2csc3ccccc23)SC(=S)N1C1C2CC3CC(C2)CC1C3 (stereo not drawn) [Compound 211, 3-adamantan-2-yl-5-benzo[b]thiophen-3-ylmethylene-2-thioxo-thiazolidin-4-one]",< 100 nM
4,O=C1/C(=C/c2ccc(Br)s2)SC(=S)N1C1C2CC3CC(C2)CC1C3 (stereo not drawn) [Compound 212],< 100 nM
5,"O=C1/C(=C/c2cc3cc(Br)ccc3[nH]2)SC(=S)N1C1C2CC3CC(C2)CC1C3 (stereo not drawn) [Compound 213, 3-adamantan-2-yl-5-(5-bromo-1H-indol-2-ylmethylene)-2-thioxo-thiazolidin-4-one]",< 100 nM
6,"O=C1/C(=C/c2cc3ccccc3s2)SC(=S)N1C1CC2CCC1C2 (stereo not drawn) [Compound 214, (Z)-5-(benzo[b]thiophen-2-ylmethylene)-3-(bicyclo[2.2.1]heptan-2-yl)-2-thioxothiazolidin-4-one]",< 100 nM
7,"O=C1/C(=C/c2c[nH]c3ccccc23)SC(=S)N1C1C2CC3CC(C2)CC1C3 (stereo not drawn) [Compound 215, 3-adamantan-2-yl-5-(1H-indol-3-ylmethylene)-2-thioxo-thiazolidin-4-one]",< 100 nM
8,"O=C1/C(=C/c2c[nH]c3ccccc23)SC(=S)N1C1CC2CCC1C2 (stereo not drawn) [Compound 216, (Z)-5-((1H-indol-3-yl)methylene)-3-(bicyclo[2.2.1]heptan-2-yl)-2-thioxothiazolidin-4-one]",< 100 nM
9,O=C1/C(=C/c2cc3ccccc3o2)SC(=S)N1C1CC2CCC1C2 (stereo not drawn) [Compound 217],< 100 nM
10,"O=C1/C(=C/c2cc3ccccc3o2)SC(=S)N1C1C2CC3CC(C2)CC1C3 (stereo not drawn) [Compound 218, 3-adamantan-2-yl-5-benzofuran-2-ylmethylene-2-thioxo-thiazolidin-4-one]",< 100 nM
11,"O=C1/C(=C/c2ccco2)SC(=S)N1C1CCCCCC1 [Compound 219, (Z)-3-cycloheptyl-5-(furan-2-ylmethylene)-2-thioxothiazolidin-4-one]",250 to 1000 nM
12,O=C1/C(=C/c2ccco2)SC(=S)N1C1CCCCC1 [Compound 220],250 to 1000 nM
13,"COC(=O)/C=C/c1ccc(/C=C2\SC(=S)N(C3CC4CCC3C4)C2=O)o1 (stereo not drawn) [Compound 221, (E)-Methyl 3-(5-((Z)-(3-(bicyclo[2.2.1]heptan-2-yl)-4-oxo-2-thioxothiazolidin-5-ylidene)methyl)-furan-2-yl)acrylate]",< 100 nM
14,"CCOC(=O)/C=C/c1ccc(/C=C2\SC(=S)N(C3C4CC5CC(C4)CC3C5)C2=O)o1 (stereo not drawn) [Compound 223, (E)-Ethyl 3-(5-((Z)-(3-(adamantan-2-yl)-4-oxo-2-thioxothiazolidin-5-ylidene)methyl)furan-2-yl)acrylate]",< 100 nM
15,COC(=O)/C=C/c1ccc(/C=C2\SC(=S)N(C3C4CC5CC(C4)CC3C5)C2=O)o1 (stereo not drawn) [Compound 224],< 100 nM
16,O=C1/C(=C/c2ccc(-c3ccc(-c4ccccc4)cc3)o2)SC(=S)N1C1CC2CCC1C2 (stereo not drawn) [Compound 226],< 100 nM
17,COc1ccc2c(O)c(-c3ccc(-c4ccc(/C=C5\SC(=S)N(C6CC7CCC6C7)C5=O)o4)cc3)c(=O)oc2c1 (stereo not drawn) [Compound 227],< 100 nM
18,O=C1/C(=C/c2[nH]c(-c3ccc(Cl)cc3)cc2CCCO)SC(=S)N1C1CC2CCC1C2 (stereo not drawn) [Compound 229],< 100 nM
19,O=C1/C(=C/c2[nH]c(-c3ccc(Cl)cc3)cc2CCCCCO)SC(=S)N1C1CC2CCC1C2 (stereo not drawn) [Compound 230],< 100 nM
20,CC(=O)OCCCc1cc(-c2ccc(Cl)cc2)[nH]c1/C=C1\SC(=S)N(C2CC3CCC2C3)C1=O (stereo not drawn) [Compound 231],< 100 nM
21,COc1cccc(-c2cc(CCCO)c(/C=C3\SC(=S)N(C4CC5CCC4C5)C3=O)[nH]2)c1 (stereo not drawn) [Compound 232],< 100 nM
22,O=C1/C(=C/c2[nH]c(-c3ccc(Cl)cc3)cc2CCCO)SC(=S)N1C1C2CC3CC(C2)CC1C3 (stereo not drawn) [Compound 234],< 100 nM
23,COc1cccc(-c2cc(CCCCCO)c(/C=C3\SC(=S)N(C4CC5CCC4C5)C3=O)[nH]2)c1 (stereo not drawn) [Compound 235],< 100 nM
24,O=C1/C(=C/c2[nH]c(-c3ccc(Cl)cc3)cc2CCCCCO)SC(=S)N1C1C2CC3CC(C2)CC1C3 (stereo not drawn) [Compound 236],< 100 nM
25,COc1cccc(-c2cc(CCCCCO)c(/C=C3\SC(=S)N(C4C5CC6CC(C5)CC4C6)C3=O)[nH]2)c1 (stereo not drawn) [Compound 237],< 100 nM
26,CC(C)(C)N1C(=O)C[C@@H](C(=O)OCCCCCc2cc(-c3ccc(Cl)cc3)[nH]c2/C=C2\SC(=S)N(C3C4CC5CC(C4)CC3C5)C2=O)NC1=O (stereo partly drawn) [Compound 251],< 100 nM

# Source: patent publication US8933075B2, “Compounds useful as antiviral agents, compositions, and methods of use” (priority 2010, dated 2015)
